Experimental data: patent publication US5480882A, “Benzoxazinone and benzothiazinone derivatives having cardiovascular activity” (Italfarmaco S.p.A., priority 1992, dated 1996)
Counter-ions that a name gives are not always drawn.

Key:
[1] = system: rabbit aorta strip contracted with noradrenaline; assay: Vasodilative activity in vitro, inhibition of noradrenaline-induced contraction of rabbit aorta strip; type: cell-based; settings: Oryctolagus cuniculus; 50% inhibition of noradrenaline contraction of rabbit aorta strip
Protocol: The vasodilative activity of the compounds of the present invention were determined by testing of a rabbit aorta strip contracted with noradrenaline. Using the method described by K. Murakami et al. Eur. J. Pharmacol., 141, 195, 1987., IC50 values (i.e. the micromolar (μM) concentrations of active substances causing a 50% inhibition of the contraction of the aorta strip), were determined.

[2] = system: Arg-vasopressin induced coronary spasm, anaesthetized Sprague Dawley rats; assay: In vivo antianginal activity, Arg-vasopressin-induced coronary spasm (T-wave increase) in anaesthetized rats; settings: Rattus norvegicus, iv, 4 increasing doses; 50% inhibition of T-wave increase induced by i.v. Arg-vasopressin in anaesthetized rats
Protocol: The in vivo antianginal activity was determined on anaesthetized Sprague Dawley rats of weight 350-400 g, in accordance with the method of M. Leitold et al., Arzeim. Forsch., 36, 1454 1986. The test was carried out by intravenously administering to the animals one I.U./Kg, equivalent to […] of Arg-vasopressin, thus inducing a reproducible coronary spasm that may be electrocardiographically monitored by an increase of the T-wave. The animals were treated intravenously with 4 increasing doses of the compounds of the present invention to measure their ED50 (i.e., the dose giving 50% inhibition of the T-wave increase).

IC50 [1] [µM] | SMILES | ED50 [2] [mg/kg]
0.057 | O=C1c2ccc(O)cc2OCN1CCO[N+](=O)[O-] [Example 6, 2,3-Dihydro-7-hydroxy-3-(2'-nitrooxyethyl)-4H-1,3-benzoxazin-4-one] | –
0.071 | N#Cc1ccc2c(c1)C(=O)N(CCO[N+](=O)[O-])CO2 [Example 4, 6-Ciano-2,3-dihydro-3-(2'-nitrooxyethyl)-4H-1.3-benzoxazin-4-one] | 0.0115
0.64 | CN(C)C=Nc1ccc2c(c1)C(=O)N(CCO[N+](=O)[O-])CO2 [Example 3, 2,3-Dihydro-6-(N',N',-dimethyl-N-formimido)-3-(2'-nitro-oxyethyl)-4H-1,3-benzoxazin-4-one-HCl] | 0.0097
0.27 | CC(=O)Nc1ccc2c(c1)C(=O)N(CCO[N+](=O)[O-])CO2 [Example 2, 6-Acetamido-2,3-dihydro-3-(2'-nitrooxyethyl)-4H-1,3-benzoxazin-4-one] | 0.021
0.096 | O=C1c2cc(O)ccc2OCN1CCO[N+](=O)[O-] [Example 5, 2,3-Dihydro-6-hydroxy-3-(2'-nitrooxyethyl)-4H-1,3-benzoxazin-4-one] | –

SMILES | IC50 [1] [µM] | ED50 [2] [mg/kg]
O=C1c2cc([N+](=O)[O-])ccc2OCN1CCO[N+](=O)[O-] [Example 1, 2,3-Dihydro-3-(2'-nitrooxyethyl)-6-nitro,4H-1,3-benzoxazin-4-one] | 0.021 | 0.0637
